# Data as given in article PMC10920327, “Prediction of anticancer peptides derived from the true lectins of Phoenix dactylifera and their synergetic effect with mitotane” (Frontiers in Pharmacology, 2024).
# Read-outs that look alike come from different tables or passages of the source. No end group written: not given here.
# Assays:
# HepG2 [1] = assay: cells; conditions: Homo sapiens, HepG2, read-out: IC50 value against HepG2, single agent
# Description: (§1) Selected human cell lines were cultured in DMEM media with 10% fetal bovine serum (FBS) at 37°C in a CO2 incubator. After 70%–90% confluence, 5 mL of 0.25% trypsin is injected to separate the cells. The cells were counted using trypan blue, and the cell concentration was set at 10^5/mL. A 96-well plate was filled with 100 mL in each well, and the plate was then incubated for 24 h.
# (§2) In this study the media in each well was replaced to contain media containing peptides in varying concentrations (U1, U2, U3, U4, U5, U6, U7, U8, and U9). […] Mitotane concentrations ranged from 20 to 600 µM. U3 and U7 were combined with mitotane using two different preparation techniques. Various concentrations of U3 or U7 (40–1500 µM) and mitotane (20–600 µM) were serially diluted. serial dilution of mitotane concentration with 500 µg/mL of U3 or U7 at a fixed concentration Each concentration was repeated four times.
# HepG2 [2] = conditions: for % of cell viability of HepG2, mitotane alone: mitotane 25 µg/mL (80 µM) alone, MTT, 80 µM; for % of cell viability of HepG2, mitotane alone / IC50: 48 h
# Description: as §1, §2
# MCF-7 [3] = conditions: 48 h, MTT; for % of cell viability of MCF-7, mitotane alone: mitotane 25 µg/mL alone
# Description: as §1, §2
# MCF-7 [4] = assay: cells; conditions: Homo sapiens, MCF7, read-out: IC50 value against MCF-7, single agent
# Description: as §1, §2
# T47D = assay: MTT cell viability assay, T47D; format: cell-based, human; conditions: Table 3, 48 h, peptide alone
# Description: MCF-7, T47D (breast cancer), and HepG2 (liver cancer) were donated by the Tissue Culture Unit, Department of Biochemistry, Faculty of Science, King Abdulaziz University. Selected human cell lines were cultured in DMEM media with 10% fetal bovine serum (FBS) at 37°C in a CO2 incubator. After 70%–90% confluence, 5 mL of 0.25% trypsin is injected to separate the cells. The cells were counted using trypan blue, and the cell concentration was set at 10^5/mL. A 96-well plate was filled with […] in each well, and the plate was then incubated for 24 h.
# Mitotane, marketed as Lysodren, functions as a steroidogenesis inhibitor and cytostatic antineoplastic drug. It is employed for treating adrenocortical carcinoma and Cushing’s syndrome ([Lo Iacono et al., 2021]). In this study the media in each well was replaced to contain media containing peptides in varying concentrations (U1, U2, U3, U4, U5, U6, U7, U8, and U9). U3 and U7, which have the lowest IC50 values, were chosen to be combined with mitotane. Mitotane concentrations ranged from 20 to 600 µM. U3 and U7 were combined with mitotane using two different preparation techniques. Various concentrations of U3 or U7 (40–1500 µM) and mitotane (20–600 µM) were serially diluted. serial dilution of mitotane concentration with 500 µg/mL of U3 or U7 at a fixed concentration Each concentration was repeated four times.
# After 48 h of incubation at 37°C, 100 µL of the 0.5 mg/mL MTT was changed with media containing the medication. At 37°C in the dark, the 96-well plate was incubated for 4 h. After removing the MTT and replacing it with 100 µL of DMSO, the plate was allowed to rest for 15 min. The absorbance of each well in 96 well plate was read at wave length 595 nm by ELISA reader (Bio-RAD microplate reader, Japan).
# The treated cells viability and IC50 were expressed as the mean ± standard deviation (SD). The percentage viability was calculated by multiplying the absorbance of treated cells by 100 and dividing the absorbance of untreated cells. The software GraphPad Prism (version 9.0, San Diego, CA, United States) was conducted to calculate the IC50 of peptides, mitotane and their combination.
# [5] = mean ± SD, n = 3, read-out: IC50 value against T47D
# [6] = range from GraphPad fit, read-out: IC50 range against T47D
# [7] = read-out: IC50 range against MCF-7, Table 3, peptide alone, range from GraphPad fit
# [8] = read-out: IC50 value against MCF-7, Table 3, peptide alone, mean ± SD, n = 3
# [9] = read-out: IC50 value against MCF-7, single agent, Table 4/Figure 2, U3, U7 40–1500 µM or mitotane alone, mean ± SD, n = 3
compound,measurement,setting,value
Clc1ccc(C(c2ccccc2Cl)C(Cl)Cl)cc1 (centres unmarked) [Mitotane],IC50,HepG2 [1],40.1 ± 4.69 µM
same,"% of cell viability of HepG2, mitotane alone",HepG2 [2],41%
same,"% of cell viability of HepG2, mitotane alone",HepG2 [2]; listed as mitotane,41.86 ± 4.54%
same,HepG2 IC50 fold lower than MCF-7,"HepG2 [2]; mitotane alone, HepG2 versus MCF-7",2 fold
same,"% of cell viability of MCF-7, mitotane alone",MCF-7 [3],59%
same,"% of cell viability of MCF-7, mitotane alone",MCF-7 [3]; listed as mitotane,59.05 ± 1.83%
same,IC50,MCF-7 [4],76.3 ± 5.04 µM
TFPCSASNK [Peptide U8],IC50,T47D; [5],4710 ± 83.6 µM
same,IC50,T47D; [6],1990 to 11100 µM
same,IC50,MCF-7 [3]; [7],518 to 792 µM
same,IC50,MCF-7 [3]; [8],641 ± 43.8 µM
HDNTAHPAPDS [Peptide U9],IC50,T47D; [5],5460 ± 99.3 µM
same,IC50,T47D; [6],2620 to 11400 µM
same,IC50,MCF-7 [3]; [7],351 to 496 µM
same,IC50,MCF-7 [3]; [8],418 ± 15.7 µM
NEEENTHISTR [Peptide U4],IC50,T47D; [5],872 ± 23.4 µM
same,IC50,T47D; [6],723 to 1050 µM
same,IC50,MCF-7 [3]; [7],261 to 338 µM
same,IC50,MCF-7 [3]; [8],297 ± 19.7 µM
DEEENTHISTR [Peptide U5],IC50,T47D; [5],1260 ± 62.5 µM
same,IC50,T47D; [6],866 to 1830 µM
same,IC50,MCF-7 [3]; [7],549 to 1090 µM
same,IC50,MCF-7 [3]; [8],773 ± 44.5 µM
NQADSSPSS [Peptide U2],IC50,T47D; [5],1510 ± 78 µM
same,IC50,T47D; [6],1140 to 1990 µM
same,IC50,MCF-7 [3]; [7],451 to 1030 µM
same,IC50,MCF-7 [3]; [8],682 ± 32 µM
NCSIHGDIPAY [Peptide U7],IC50,HepG2 [2],524 ± 35.8 µM
same,IC50,T47D; [5],584 ± 30 µM
same,IC50,T47D; [6],485 to 703 µM
same,IC50,MCF-7 [3]; [7],266 to 458 µM
same,IC50,MCF-7 [3]; [9],554 ± 44.4 µM
same,IC50,MCF-7 [3]; [8],349 ± 25.3 µM
SSQGYGSSPSPTPR [Peptide U1],IC50,T47D; [5],599 ± 20.4 µM
same,IC50,T47D; [6],458 to 784 µM
same,IC50,MCF-7 [3]; [7],1010 to 2260 µM
same,IC50,MCF-7 [3]; [8],1510 ± 71.7 µM
NGSIPATWASL [Peptide U3],IC50,HepG2 [2],561 ± 39.3 µM
same,IC50,T47D; [5],518 ± 34.9 µM
same,IC50,T47D; [6],435 to 616 µM
same,IC50,MCF-7 [3]; [7],373 to 617 µM
same,IC50,MCF-7 [3]; [9],556 ± 43.5 µM
same,IC50,MCF-7 [3]; [8],480 ± 55 µM
AVGSASPTL [Peptide U6],IC50,T47D; [5],5900 ± 119 µM
same,IC50,T47D; [6],2520 to 13800 µM
same,IC50,MCF-7 [3]; [7],1360 to 2080 µM
same,IC50,MCF-7 [3]; [8],1680 ± 74.3 µM
